Experimental findings from patent publication US20240207265A1, “TREATMENT OF CNS DISEASES WITH sGC STIMULATORS” (Tisento Therapeutics Inc., priority 2021, published 2024) are described below.

This assay concerns the target T1, human α2β1 sGC isozyme (Homo sapiens, UniProt P33402+Q02153).
T1 construct: host or cells: CHO-K1
T1 sequence (P33402 1-732): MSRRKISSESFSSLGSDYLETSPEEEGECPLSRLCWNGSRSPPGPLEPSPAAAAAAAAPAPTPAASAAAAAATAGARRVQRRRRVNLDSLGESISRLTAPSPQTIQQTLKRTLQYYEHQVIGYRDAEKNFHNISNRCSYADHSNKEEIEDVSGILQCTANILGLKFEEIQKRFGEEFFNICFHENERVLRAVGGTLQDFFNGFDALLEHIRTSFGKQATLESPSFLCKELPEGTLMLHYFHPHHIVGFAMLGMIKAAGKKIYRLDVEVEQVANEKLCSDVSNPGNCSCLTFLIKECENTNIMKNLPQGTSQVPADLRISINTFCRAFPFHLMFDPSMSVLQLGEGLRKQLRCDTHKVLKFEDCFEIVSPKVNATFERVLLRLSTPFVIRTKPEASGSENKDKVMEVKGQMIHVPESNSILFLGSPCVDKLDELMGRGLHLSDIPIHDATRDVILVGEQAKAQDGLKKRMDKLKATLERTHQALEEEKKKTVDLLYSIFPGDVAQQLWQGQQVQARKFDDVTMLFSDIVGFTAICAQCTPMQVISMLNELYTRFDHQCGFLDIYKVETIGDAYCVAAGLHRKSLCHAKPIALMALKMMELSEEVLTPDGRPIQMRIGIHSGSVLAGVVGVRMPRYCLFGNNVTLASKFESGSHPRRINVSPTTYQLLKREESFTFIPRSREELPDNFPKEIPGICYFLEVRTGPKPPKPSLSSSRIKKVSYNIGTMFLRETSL
T1 sequence (Q02153 1-619): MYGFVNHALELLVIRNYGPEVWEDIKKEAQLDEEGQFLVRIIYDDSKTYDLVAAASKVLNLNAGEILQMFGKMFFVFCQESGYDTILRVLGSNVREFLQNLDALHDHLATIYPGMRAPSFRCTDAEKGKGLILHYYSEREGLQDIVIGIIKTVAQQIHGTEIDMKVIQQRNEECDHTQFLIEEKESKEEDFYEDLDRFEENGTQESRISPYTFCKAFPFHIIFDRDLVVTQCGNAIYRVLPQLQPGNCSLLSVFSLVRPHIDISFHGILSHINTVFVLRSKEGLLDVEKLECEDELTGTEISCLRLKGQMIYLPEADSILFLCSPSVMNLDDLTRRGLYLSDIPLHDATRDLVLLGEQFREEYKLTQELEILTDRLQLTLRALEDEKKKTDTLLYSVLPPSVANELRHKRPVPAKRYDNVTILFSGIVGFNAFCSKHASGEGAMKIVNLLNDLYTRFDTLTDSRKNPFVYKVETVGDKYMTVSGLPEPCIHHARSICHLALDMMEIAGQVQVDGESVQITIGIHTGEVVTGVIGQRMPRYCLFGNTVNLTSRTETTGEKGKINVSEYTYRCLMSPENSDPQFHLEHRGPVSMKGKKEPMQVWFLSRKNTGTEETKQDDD
As to the kind of experiment: cGMP assay in CHO-K1 cells stably expressing human α2β1 sGC isozyme. Format: cell-based. The conditions noted are these: 10 μM DETA-NONOate. How it is done:
sGC stimulators were dissolved in DMSO as a 10 mM solution and stored at −20° C. To achieve desired test concentrations, stock concentrations were serially diluted into DMSO and then diluted to the appropriate concentration in assay buffer.
CHO-K1 cells stably transfected with human α2β1 sGC isozyme (generated by GenScript for Ironwood) were cultured in F-12K medium (ATCC catalog #30-2004) with 10% fetal calf serum, 4 μg/mL puromycin (Gibco catalog #A11138-03) and 0.4 mg/mL of geneticin (Gibco catalog #10131-027) in a 95% humidified atmosphere containing 5% CO2 in air at 37° C. For GC activity assays, cells were seeded in 384 well poly-D-lysine coated flat bottom plates (Fisher Scientific #08-774-311) in either 50 μL or 70 μL medium at a density of either 3×10^4 cells/well or 15×10^3, respectively. Cells were incubated for 24 hours at 37° C. in a humidified chamber supplemented with 5% CO2.
For each test concentration, the compound was diluted in 100% DMSO to 100-fold of its final assay concentration. Immediately prior to the assay, the solution was diluted 20-fold into HBSS containing calcium, magnesium, and 50 μM DETA-NONOate (5× the final assay concentration). Medium was removed and cells were washed once with 40 μL of HBSS. Cells were then incubated with 40 μL of a solution containing 0.5 mM IBMX in HBSS for 15 min at 37° C. 10 μL from the sGC stimulator/HBSS/DETA-NONOate plate was added to the cells, which were incubated for an additional 20 min at 37° C. Final DMSO concentration was 1%, final DETA-NONOate concentration was 10 μM; and final compound concentrations were 30,000 nM, 6000 nM, 1200 nM, 240 nM, 48 nM, 9.6 nM, 1.92 nM, 0.384 nM, 0.077 nM, 0.015 nM, or 0.003 nM.
Following incubation with compound, assay buffer was removed and 50 μL of ice-cold 10% acetic acid+150 ng/mL internal standard (+3 cGMP) was added to each well. Samples were incubated on ice for 30-60 min. Following centrifugation at 4° C. for 5 min at 1000×g to pellet cell debris, the supernatant was transferred to a clean plate and the samples analyzed for cGMP content.
Data were analyzed with a 4-parameter fit (log(agonist) vs. response-variable slope) using GraphPad Prism Software v.8. The EC50 was interpolated from the curve fit and is defined as the concentration at which the compound elicits 50% of its maximal response. When the experiment was carried out multiple times for a given compound, the geometrical mean of all experiments is reported.

Turning to `Oc1nc(-c2cn3ccnc3c(Cc3cccc(F)c3F)n2)ncc1F` [Compound I-4, 2-(8-(2,3-Difluorobenzyl)imidazo[1,2-a]pyrazin-6-yl)-5-fluoropyrimidin-4-ol], the EC50 is not above 100 nM.
Under `Oc1nc(-c2cn3ccnc3c(Cc3cc(F)ccc3F)n2)ncc1Cl` [Compound I-16, 5-chloro-2-(8-(2,5-difluorobenzyl)imidazo[1,2-a]pyrazin-6-yl)pyrimidin-4-ol] stands not above 100 nM; under `Oc1nc(-c2cn3c(F)cnc3c(Cc3cc(F)ccc3F)n2)ncc1F` [Compound I-5], not above 100 nM.
Turning to `Oc1nc(-c2cn3ccnc3c(Cc3ccccc3)n2)ncc1F` [Compound I-2, 2-(8-Benzylimidazo[1,2-a]pyrazin-6-yl)-5-fluoropyrimidin-4-ol], the concentration for a half-maximal effect (EC50) is 100 to 1000 nM.
`Oc1nc(-c2cn3ccnc3c(Cc3ccccc3F)n2)ncc1F` [Compound I-21] displayed an EC50 not above 100 nM.
`Oc1nc(-c2cn3ncnc3c(Cc3ccccc3F)n2)ncc1F` [Compound I-23] gave an EC50 of 100 to 1000 nM.
In the case of `Oc1nc(-c2cn3ccnc3c(Cc3cc(F)ccc3F)n2)ncc1F` [Compound I-20, 5-fluoro-2-(8-(2,5-difluorobenzyl)imidazo[1,2-a]pyrazin-6-yl)pyrimidin-4-ol], the EC50 was not above 100 nM.
Under `Cc1cc(F)c(Cc2nc(-c3ncc(F)c(O)n3)cn3c(F)cnc23)cc1F` [Compound I-18] stands not above 100 nM.
As for `Cc1cc(F)c(Cc2nc(-c3ncc(F)c(O)n3)cn3ncnc23)cc1F` [Compound I-19, 5-Fluoro-2-(8-(2,5-difluoro-4-methylbenzyl)-[1,2,4]triazolo[1,5-a]pyrazin-6-yl)pyrimidin-4-ol], the EC50 is not above 100 nM.
For `Cc1cc(F)c(Cc2nc(-c3nccc(O)n3)cn3ccnc23)cc1F` [Compound I-15, 2-(8-(2,5-difluoro-4-methylbenzyl)imidazo[1,2-a]pyrazin-6-yl)pyrimidin-4-ol], the EC50 lay within 100 to 1000 nM.
